Measured values as given in ChEMBL document CHEMBL1142650, “Novel transient receptor potential vanilloid 1 receptor antagonists for the treatment of pain: structure-activity relationships for ureas with quinoline, isoquinoline, quinazoline, phthalazine, quinoxaline, and cinnoline moieties” (J Med Chem, 2005).

Columns and labels:
[1] = biological target: Transient receptor potential cation channel subfamily V member 1 (Homo sapiens, UniProt Q8NER1); assay: Inhibition of binding to human vanilloid receptor subtype VR1
Transient receptor potential cation channel subfamily V member 1 (Homo sapiens, UniProt Q8NER1), sequence (Q8NER1 whole entry): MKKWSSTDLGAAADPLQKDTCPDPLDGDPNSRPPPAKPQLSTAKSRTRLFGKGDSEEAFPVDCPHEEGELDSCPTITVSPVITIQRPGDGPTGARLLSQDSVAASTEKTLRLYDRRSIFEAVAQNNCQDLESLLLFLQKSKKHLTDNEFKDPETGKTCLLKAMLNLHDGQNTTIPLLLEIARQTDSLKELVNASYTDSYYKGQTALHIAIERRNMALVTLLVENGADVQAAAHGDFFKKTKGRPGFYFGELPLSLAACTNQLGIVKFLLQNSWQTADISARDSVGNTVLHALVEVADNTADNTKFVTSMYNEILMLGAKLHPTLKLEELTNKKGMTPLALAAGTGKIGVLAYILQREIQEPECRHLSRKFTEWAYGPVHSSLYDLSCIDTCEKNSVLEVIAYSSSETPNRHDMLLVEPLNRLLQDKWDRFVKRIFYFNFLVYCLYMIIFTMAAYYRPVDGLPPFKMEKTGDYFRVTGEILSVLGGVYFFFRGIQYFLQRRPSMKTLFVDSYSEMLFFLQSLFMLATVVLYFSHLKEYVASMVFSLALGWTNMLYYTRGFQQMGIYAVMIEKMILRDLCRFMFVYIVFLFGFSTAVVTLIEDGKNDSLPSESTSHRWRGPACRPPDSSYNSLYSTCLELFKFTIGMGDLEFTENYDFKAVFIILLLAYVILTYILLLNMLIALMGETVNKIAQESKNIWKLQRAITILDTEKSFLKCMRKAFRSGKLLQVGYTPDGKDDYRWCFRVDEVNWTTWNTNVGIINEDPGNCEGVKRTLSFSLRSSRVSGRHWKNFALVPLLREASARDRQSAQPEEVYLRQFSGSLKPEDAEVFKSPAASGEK

[2] = Volume of distribution in rat; assay type: ADME, organism-based; conditions: in vivo, read-out: Vbeta
[3] = biological target: Transient receptor potential cation channel subfamily V member 1 (Rattus norvegicus, UniProt O35433); assay: Inhibition of binding to rat transient receptor potential vanilloid 1 receptor
Transient receptor potential cation channel subfamily V member 1 (Rattus norvegicus, UniProt O35433), sequence (O35433 whole entry): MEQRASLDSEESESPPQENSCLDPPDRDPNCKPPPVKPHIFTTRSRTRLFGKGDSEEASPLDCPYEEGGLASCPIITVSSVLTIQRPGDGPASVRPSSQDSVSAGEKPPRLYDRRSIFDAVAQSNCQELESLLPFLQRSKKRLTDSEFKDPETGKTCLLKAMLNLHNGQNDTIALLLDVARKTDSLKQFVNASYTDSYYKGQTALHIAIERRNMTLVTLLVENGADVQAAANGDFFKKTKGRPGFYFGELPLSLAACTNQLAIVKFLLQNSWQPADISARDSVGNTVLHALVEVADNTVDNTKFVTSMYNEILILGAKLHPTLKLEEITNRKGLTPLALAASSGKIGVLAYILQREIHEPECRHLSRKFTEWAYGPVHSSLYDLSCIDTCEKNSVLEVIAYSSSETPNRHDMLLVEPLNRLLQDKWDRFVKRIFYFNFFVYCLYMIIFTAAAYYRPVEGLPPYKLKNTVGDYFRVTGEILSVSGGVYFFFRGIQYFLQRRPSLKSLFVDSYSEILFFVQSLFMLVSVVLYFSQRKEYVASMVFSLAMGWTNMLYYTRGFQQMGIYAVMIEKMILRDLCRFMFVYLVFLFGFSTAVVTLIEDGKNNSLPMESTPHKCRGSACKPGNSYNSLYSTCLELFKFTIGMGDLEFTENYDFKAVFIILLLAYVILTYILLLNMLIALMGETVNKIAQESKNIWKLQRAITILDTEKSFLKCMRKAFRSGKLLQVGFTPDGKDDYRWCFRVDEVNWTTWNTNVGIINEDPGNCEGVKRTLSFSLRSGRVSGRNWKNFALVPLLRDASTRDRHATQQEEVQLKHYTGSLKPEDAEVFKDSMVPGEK

[4] = Half life in rat; assay type: ADME; conditions: in vivo
Rattus norvegicus = species: Rattus norvegicus; assay: Concentration required to reduce thermal hyperalgesia in the complete Freund's adjuvant (CFA) model of chronic inflammatory pain; assay type: functional
[5] = Maximum concentration in rat; assay type: ADME, organism-based; conditions: in vivo
[6] = Plasma protein binding in human; assay type: ADME, cell-free; conditions: read-out: Plasma protein binding (converted)
[7] = Plasma protein binding in rat; assay type: ADME, cell-free; conditions: read-out: Plasma protein binding (converted)

## O=C(NCCc1cccc(C(F)(F)F)c1)Nc1cccc2cnccc12
[1]
  IC50: 20 nM

## CSc1cccc(NC(=O)Nc2cccc3ccc(O)cc23)c1
[1]
  IC50: 22 nM

## O=C(NCc1ccc(C(F)(F)F)cc1)Nc1cccc2cnccc12
[2]
  Vd: 0.6 L/kg
[3]
  IC50: 24 nM
[4]
  half-life: 36 min
Rattus norvegicus
  ED50: 30 µmol/kg
[5]
  Cmax: 3000 ng/mL
[1]
  IC50: 4 nM
[6]
  fraction unbound: 0.02
[7]
  fraction unbound: 0.029

## O=C(NCc1cccc(C(F)(F)F)c1)Nc1cccc2cnccc12
[1]
  IC50: 51 nM
